Starred links: 1 amine or outer side, 2 acyl side, 3 side chain; linkers in the order of their positions; H or OH if unused. Non-standard residues stand in square brackets, D forms with d. Residues, ends and D or L forms follow the SMILES beside them. No end group written: not given here. *: point of attachment. X3 = O=C(CNC(=S)[C@H](Cc1ccccc1)N[*:1])[*:2]; Arg(Me) = CNC(=N)NCCC[C@H](N)C(=O)O; 4Pal = N[C@@H](Cc1ccncc1)C(=O)O; Cha = N[C@@H](CC1CCCCC1)C(=O)O; X7 = O=C(c1c[nH]c2ccccc12)*; Orn = NCCC[C@H](N)C(=O)O; Bz = O=C(c1ccccc1)*; azaGly = NNC(=O)O
Experiments:
[1] = target: T1, hOT7T175 (Homo sapiens, UniProt Q969F8); test: Intracellular Ca ion level-increasing activity using FLIPR (180 seconds; specific activity to Metastin (1-54)); assay type: cell-based; conditions: hOT7T175/CHO, change in intracellular calcium ion level for 180 seconds, Tables 21-23
T1 construct: expressed in transfected cells

[2] = target: T2, hOT7T175 (Homo sapiens, UniProt Q969F8, L364H); assay type: cell-based; conditions: hOT7T175/CHO, FLIPR, evaluation for 40 seconds after initiation of the reaction
T2 construct: expressed in transfected cells
T2 sequence (Q969F8 whole entry L364H): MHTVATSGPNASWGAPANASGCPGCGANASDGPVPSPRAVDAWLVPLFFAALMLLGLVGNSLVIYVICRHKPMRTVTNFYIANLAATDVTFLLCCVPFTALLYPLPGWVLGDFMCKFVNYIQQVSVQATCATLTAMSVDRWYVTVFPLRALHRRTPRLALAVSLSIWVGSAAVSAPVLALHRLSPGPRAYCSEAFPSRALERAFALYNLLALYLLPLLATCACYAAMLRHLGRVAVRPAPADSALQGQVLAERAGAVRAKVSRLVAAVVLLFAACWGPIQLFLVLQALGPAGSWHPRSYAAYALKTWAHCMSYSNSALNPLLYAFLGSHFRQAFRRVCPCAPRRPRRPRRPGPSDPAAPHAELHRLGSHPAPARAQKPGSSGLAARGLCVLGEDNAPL
Experimental: The intracellular Ca ion level-increasing activity was measured using FLIPR as in TEST EXAMPLE 2.

T1 sequence (Q969F8 whole entry L364H): as above

Molecule: CNC(=N)NCCC[C@H](NC(=O)[C@H](CC(C)C)NC(=O)NNC(=O)[C@H](Cc1ccccc1)NC(=O)[C@H](CO)NC(=O)[C@H](CC(N)=O)NC(=O)c1c[nH]c2ccccc12)C(=O)N[C@@H](Cc1ccccc1)C(N)=O [Compound No. 265, Indole-3-carbonyl-Asn-Ser-Phe-AzaGly-Leu-Arg(Me)-Phe-NH2] (X7-NSF[azaGly]L[Arg(Me)]F-NH2)
- intracellular Ca ion level-increasing activity [specific activity to Metastin (1-54)] [1]: 3
- Specific Act. (EC50/MS10 EC50) [2]: 4.4

Molecule: D-Tyr-D-Pya(4)-Asn-Ser-Phe-AzaGly-Leu-Har-Phe-NH2 [Compound No. 488]
- intracellular Ca ion level-increasing activity [specific activity to Metastin (1-54)] [1]: 1
- Specific Act. (EC50/MS10 EC50) [2]: 5.5

Molecule: [dY][dF]ASF[azaGly]L[Arg(Me)]W-NH2 [Compound No. 514]
- intracellular Ca ion level-increasing activity [specific activity to Metastin (1-54)] [1]: 10
- Specific Act. (EC50/MS10 EC50) [2]: 0.7

Molecule: 3-Phenylpropionyl-Asn-Ile-Phe-AzaGly-Leu-Arg(Me)-Trp-NH2 [Compound No. 506]
- intracellular Ca ion level-increasing activity [specific activity to Metastin (1-54)] [1]: 1
- Specific Act. (EC50/MS10 EC50) [2]: 1.3

Molecule: [dY][dW]ATF[azaGly]L[Arg(Me)]W-NH2 [Compound No. 511]
- intracellular Ca ion level-increasing activity [specific activity to Metastin (1-54)] [1]: 10
- Specific Act. (EC50/MS10 EC50) [2]: 0.5

Molecule: Bz-[Cha][azaGly]L[Arg(Me)]W-NH2 [Compound No. 449]
- intracellular Ca ion level-increasing activity [specific activity to Metastin (1-54)] [1]: 5
- Specific Act. (EC50/MS10 EC50) [2]: 4.2

Molecule: 3-Furancarbonyl-Phe-AzaGly-Leu-Arg(Me)-Trp-NH2 [Compound No. 454]
- intracellular Ca ion level-increasing activity [specific activity to Metastin (1-54)] [1]: 6
- Specific Act. (EC50/MS10 EC50) [2]: 2.5

Molecule: CNC(=N)NCCC[C@H](NC(=O)[C@H](CC(C)C)NC(=O)NNC(=O)[C@H](Cc1ccccc1)NC(=O)[C@H](CO)NC(=O)[C@H](CC(N)=O)NC(=O)[C@H](Cc1ccncc1)NC(=O)[C@@H](CC(N)=O)NC(=O)[C@H](N)Cc1ccc(O)cc1)C(=O)N[C@@H](Cc1ccccc1)C(N)=O [Compound No. 303, D-Tyr-D-Asn-Pya(4)-Asn-Ser-Phe-AzaGly-Leu-Arg(Me)-Phe-NH2] (H-[dY][dN][4Pal]NSF[azaGly]L[Arg(Me)]F-NH2)
- intracellular Ca ion level-increasing activity [specific activity to Metastin (1-54)] [1]: 5
- Specific Act. (EC50/MS10 EC50) [2]: 6.9

Molecule: CNC(=N)NCCC[C@H](NC(=O)[C@H](CC(C)C)NC(=O)CNC(=S)[C@H](Cc1ccccc1)NC(=O)[C@H](CO)NC(=O)[C@H](CC(N)=O)NC(=O)[C@H](Cc1c[nH]c2ccccc12)NC(=O)[C@H](CC(N)=O)NC(=O)[C@H](N)Cc1ccc(O)cc1)C(=O)N[C@@H](Cc1ccccc1)C(N)=O [Compound No. 296, D-Tyr-Asn-Trp-Asn-Ser-PheΨ(CSNH)Gly-Leu-Arg(Me)-Phe-NH2] (H-[dY]NWNS[X3]L[Arg(Me)]F-NH2)
- intracellular Ca ion level-increasing activity [specific activity to Metastin (1-54)] [1]: 3
- Specific Act. (EC50/MS10 EC50) [2]: 5.2

Molecule: D-Tyr-D-Pya(4)-Thr-Ser-Phe-AzaGly-Leu-Arg(Me)-Trp-NH2 [Compound No. 493]
- intracellular Ca ion level-increasing activity [specific activity to Metastin (1-54)] [1]: 2
- Specific Act. (EC50/MS10 EC50) [2]: 2.2

Molecule: 4-Aminobenzoyl-Phe-AzaGly-Leu-Arg(Me)-Trp-NH2 [Compound No. 472]
- intracellular Ca ion level-increasing activity [specific activity to Metastin (1-54)] [1]: 3
- Specific Act. (EC50/MS10 EC50) [2]: 3.4

Molecule: [dY][dW]ASF[azaGly]L[Arg(Me)]W-NH2 [Compound No. 503]
- intracellular Ca ion level-increasing activity [specific activity to Metastin (1-54)] [1]: 10
- Specific Act. (EC50/MS10 EC50) [2]: 0.4

Molecule: CC(C)C[C@H](NC(=O)CNC(=O)[C@H](Cc1ccccc1)NC(=O)[C@H](CO)NC(=O)[C@H](CC(N)=O)NC(=O)[C@H](Cc1c[nH]c2ccccc12)NC(=O)[C@H](CC(N)=O)NC(=O)[C@@H](N)Cc1ccc(O)cc1)C(=O)N[C@@H](CCCN)C(=O)N[C@@H](Cc1ccccc1)C(N)=O [Compound No. 314] (H-YNWNSFGL[Orn]F-NH2)
- intracellular Ca ion level-increasing activity [specific activity to Metastin (1-54)] [1]: 1
- Specific Act. (EC50/MS10 EC50) [2]: 4.4

Molecule: Pyrrole-3-carbonyl-Phe-AzaGly-Leu-Arg(Me)-Trp-NH2 [Compound No. 474]
- intracellular Ca ion level-increasing activity [specific activity to Metastin (1-54)] [1]: 5
- Specific Act. (EC50/MS10 EC50) [2]: 3.2

Molecule: 6-(Trifluoromethyl)nicotinoyl-Phe-AzaGly-Leu-Arg(Me)-Trp-NH2 [Compound No. 464]
- intracellular Ca ion level-increasing activity [specific activity to Metastin (1-54)] [1]: 1
- Specific Act. (EC50/MS10 EC50) [2]: 10.5

Molecule: (2S)-2-(3-Indolylprpionyloxy)-3-phenylpropionyl-AzaGly-Leu-Arg(Me)-Trp-NH2 [Compound No. 379]
- intracellular Ca ion level-increasing activity [specific activity to Metastin (1-54)] [1]: 2
- Specific Act. (EC50/MS10 EC50) [2]: 3.0

Molecule: Ac-Phe-AzaGly-Leu-Arg(Me)-Trp-NH2 [Compound No. 358]
- intracellular Ca ion level-increasing activity [specific activity to Metastin (1-54)] [1]: 2
- Specific Act. (EC50/MS10 EC50) [2]: 5.6

Molecule: Dibenzylcarbamoyl-AzaGly-Leu-Arg(Me)-Trp-NH2 [Compound No. 393]
- intracellular Ca ion level-increasing activity [specific activity to Metastin (1-54)] [1]: 1
- Specific Act. (EC50/MS10 EC50) [2]: 5.9

Molecule: 4-Imidazolecarbonyl-Phe-AzaGly-Leu-Arg(Me)-Trp-NH2 [Compound No. 459]
- intracellular Ca ion level-increasing activity [specific activity to Metastin (1-54)] [1]: 2
- Specific Act. (EC50/MS10 EC50) [2]: 7.3

Molecule: CNC(=N)NCCC[C@H](NC(=O)[C@H](CC(C)C)NC(=O)NNC(=O)[C@H](Cc1ccccc1)NC(=O)[C@H](CO)NC(=O)[C@H](CC(N)=O)NC(=O)[C@H](Cc1c[nH]c2ccccc12)NC(=O)[C@H](CC(N)=O)NC(=O)[C@H](N)Cc1ccc(O)cc1)C(=O)N[C@@H](Cc1ccc(F)cc1)C(N)=O [Compound No. 318, D-Tyr-Asn-Trp-Asn-Ser-Phe-AzaGly-Leu-Arg(Me)-Phe(4F)-NH2]
- intracellular Ca ion level-increasing activity [specific activity to Metastin (1-54)] [1]: 5
- Specific Act. (EC50/MS10 EC50) [2]: 2.9

Molecule: 6-Chloronicotinoyl-Phe-AzaGly-Leu-Arg(Me)-Trp-NH2 [Compound No. 463]
- intracellular Ca ion level-increasing activity [specific activity to Metastin (1-54)] [1]: 2
- Specific Act. (EC50/MS10 EC50) [2]: 4.6

Molecule: CNC(=N)NCCC[C@H](NC(=O)[C@H](CC(C)C)NC(=O)CNC[C@H](Cc1ccccc1)NC(=O)[C@H](CO)NC(=O)[C@H](CC(N)=O)NC(=O)[C@H](Cc1c[nH]c2ccccc12)NC(=O)[C@H](CC(N)=O)NC(=O)[C@H](N)Cc1ccc(O)cc1)C(=O)N[C@@H](Cc1ccccc1)C(N)=O [Compound No. 308, D-Tyr-Asn-Trp-Asn-Ser-PheΨ(CH2NH)Gly-Leu-Arg(Me)-Phe-NH2]
- intracellular Ca ion level-increasing activity [specific activity to Metastin (1-54)] [1]: 2
- Specific Act. (EC50/MS10 EC50) [2]: 2.6

Molecule: D-Tyr-D-Pya(4)-Ser-Phe-AzaGly-Leu-Arg(Me)-Trp-NH2 [Compound No. 494]
- intracellular Ca ion level-increasing activity [specific activity to Metastin (1-54)] [1]: ⅓
- Specific Act. (EC50/MS10 EC50) [2]: 8.6

Molecule: Cyclopropanecarbonyl-Cha-AzaGly-Leu-Arg(Me)-Trp-NH2 [Compound No. 451]
- intracellular Ca ion level-increasing activity [specific activity to Metastin (1-54)] [1]: 5
- Specific Act. (EC50/MS10 EC50) [2]: 2.6

Molecule: Pyrimidine-4-carbonyl-Phe-AzaGly-Leu-Arg(Me)-Trp-NH2 [Compound No. 475]
- intracellular Ca ion level-increasing activity [specific activity to Metastin (1-54)] [1]: 3
- Specific Act. (EC50/MS10 EC50) [2]: 4.2

Molecule: Acp-D-Tyr-D-Pya(4)-Asn-Ser-Phe-AzaGly-Leu-Arg(Me)-Phe-NH2 [Compound No. 504]
- intracellular Ca ion level-increasing activity [specific activity to Metastin (1-54)] [1]: 2
- Specific Act. (EC50/MS10 EC50) [2]: 6.9

Molecule: 3-Phenylpropionyl-Asn-Ser-Trp-AzaGly-Leu-Arg(Me)-Trp-NH2 [Compound No. 507]
- intracellular Ca ion level-increasing activity [specific activity to Metastin (1-54)] [1]: 5
- Specific Act. (EC50/MS10 EC50) [2]: 1.7

Source: US8778871B2 (Takeda Pharmaceutical Company Limited, priority 2004, dated 2014)
